We go through 13 compounds from patent US7511047B2, “Kinase inhibitors” (Cytopia Research Pty Ltd, priority 2002, dated 2009).

What all share (format): biochemical
One assay has as its target T1, Jak2 (Homo sapiens, UniProt O60674).
T1 construct: The kinase domain of humanJAK2 was amplified from U937mRNA; His tag (from pFastBac HTc vector) (N); made in house; host or cells: baculovirus; Sf9 insect cells for virus, High Five cells for large-scale production
In words: JAK2 kinase domain assay (ELISA or Alphascreen). Conditions: capacity to inhibit 50% of activity at 50 μM; read-out: Jak2 inhibitory activity. As to the method:
(§1) For screening purposes, compounds were diluted in 96 well plates at a concentration of 20 μM. Plates were warmed at 37° C. for 30 minutes before assay.
• JAK1 PCR products were cloned into the pFastBac HTb expression vector (Gibco) via the Xho I and Kpn I sites. The JAK1 plasmid was then transformed into competent DH10Bac cells (Gibco), and the recombinant baculovirus produced prepared for transfection into Sf9 insect cells. JAK2 • The kinase domain of humanJAK2 was amplified from U937mRNA using the polymerase chain reaction with the following primers:
• JAK2 PCR products were cloned into the pFastBac HTc expression vector (Gibco) via the Sal I and Not I sites. The JAK2 plasmid was then transformed into competent DH10Bac cells (Gibco), and the recombinant baculovirus produced prepared for transfection into Sf9 insect cells. JAK3 • The kinase domain of humanJAK3 was amplified from U937mRNA using the polymerase chain reaction with the following primers: […]
(§2) Baculovirus preparations from each of the JAK family members were infected into five litres of High Five cells (Invitrogen) grown in High Five serum free medium (Invitrogen) to a cell density of approximately 1-2×10^6 cells/ml. Cells are infected with virus at a MOI of 0.8-3.0. Cells were harvested and lysed. JAK kinase domains were purified by affinity chromatography on a Probond (Invitrogen) nickel chelate affinity column.
(§3) Kinase assays were performed either in a 96 well capture-based ELISA assay or in 384 well Optiplates (Packard) using an Alphascreen Protein Tyrosine Kinase kit. In either casse using approximately 1.5 μg of affinity purified PTK domain in the presence of 50 mM HEPES, pH 7.5, 10 mM MgCl2, 150 mM NaCl and 10 μM-1 mM ATP. The biotinylated substrate biotin-EGPWLEEEEEAYGWMDF-NH2 (SEQ ID NO:9) (final concentration 5 μM) was used as substrate. In the ELISA assay tyrosine phosphorylation was quantitated following transfer to an avidin coated ELISA plate using peroxidase-linked anti-phospho-tyrosine antibody PY20. In the Alphascreen assay, Alphascreen phosphotyrosine acceptor beads followed by streptavidin donor beads were added under subdued light. The ELISA plates were read on a BMG Fluorostar, the Alphascreen plates were read on a Packard Fusion Alpha. Inhibitors were added to the assays fifteen minutes prior to the addition of ATP. Inhibitors were added in aqueous DMSO, with DMSO concentrations never exceeding 1%.
A general note: An ELISA detects its analyte on a solid surface through an enzyme-linked reagent.

Another assay deals with T2, Jak3 (Homo sapiens, UniProt P52333).
T2 construct: The kinase domain of humanJAK3 was amplified from U937mRNA; His tag (from pFastBac HTb vector) (N); made in house; host or cells: baculovirus; Sf9 insect cells for virus, High Five cells for large-scale production
Briefly: JAK3 kinase domain assay (ELISA or Alphascreen). Conditions: capacity to inhibit 50% of activity at 50 μM; read-out: Jak3 inhibitory activity. As to the method: as §1
• JAK2 PCR products were cloned into the pFastBac HTc expression vector (Gibco) via the Sal I and Not I sites. The JAK2 plasmid was then transformed into competent DH10Bac cells (Gibco), and the recombinant baculovirus produced prepared for transfection into Sf9 insect cells. JAK3 • The kinase domain of humanJAK3 was amplified from U937mRNA using the polymerase chain reaction with the following primers:
• JAK3 PCR products were cloned into the pFastBac HTb expression vector (Gibco) via the Xho I and Kpn I sites. The JAK3 plasmid was then transformed into competent DH10Bac cells (Gibco), and the recombinant baculovirus produced prepared for transfection into Sf9 insect cells. TYK2 • The kinase domain of humanTYK2 was amplified from A549 mRNA using the polymerase chain reaction with the following primers: […]
as §2, §3

The target in a further assay is T3, abl (Homo sapiens, UniProt P00519).
T3 sequence (P00519 242-493 limits assumed): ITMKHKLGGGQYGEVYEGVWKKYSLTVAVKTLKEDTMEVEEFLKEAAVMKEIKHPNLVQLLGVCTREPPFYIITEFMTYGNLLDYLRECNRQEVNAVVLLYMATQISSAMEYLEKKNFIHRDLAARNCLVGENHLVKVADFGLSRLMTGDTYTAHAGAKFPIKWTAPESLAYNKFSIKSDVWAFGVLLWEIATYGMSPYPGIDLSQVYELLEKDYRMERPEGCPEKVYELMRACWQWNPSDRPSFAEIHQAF
In words: abl kinase assay (ELISA or Alphascreen). Conditions: capacity to inhibit 50% of activity at 50 μM; read-out: abl inhibitory activity. As to the method:
as §1, §3

The target of another assay is hck (Homo sapiens, UniProt P08631). Briefly: hck kinase assay (ELISA or Alphascreen). Conditions: capacity to inhibit 50% of activity at 50 μM; read-out: hck inhibitory activity. As to the method: as §1, §3
In a further assay the target is kdr (Homo sapiens, UniProt P35968). Briefly: kdr kinase assay (ELISA or Alphascreen). Conditions: capacity to inhibit 50% of activity at 50 μM; read-out: kdr inhibitory activity. As to the method:
as §1, §3

SMILES strings stand for the structures.

hck, sequence (P08631 262-515 limits assumed, species assumed): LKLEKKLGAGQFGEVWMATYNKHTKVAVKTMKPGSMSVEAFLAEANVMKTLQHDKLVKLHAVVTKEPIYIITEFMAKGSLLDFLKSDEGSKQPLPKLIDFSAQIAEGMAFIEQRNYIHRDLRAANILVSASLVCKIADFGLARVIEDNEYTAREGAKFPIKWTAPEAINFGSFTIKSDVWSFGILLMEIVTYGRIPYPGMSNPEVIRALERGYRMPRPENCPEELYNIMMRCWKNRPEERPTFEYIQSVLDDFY
T1 sequence (O60674 849-1124 limits assumed): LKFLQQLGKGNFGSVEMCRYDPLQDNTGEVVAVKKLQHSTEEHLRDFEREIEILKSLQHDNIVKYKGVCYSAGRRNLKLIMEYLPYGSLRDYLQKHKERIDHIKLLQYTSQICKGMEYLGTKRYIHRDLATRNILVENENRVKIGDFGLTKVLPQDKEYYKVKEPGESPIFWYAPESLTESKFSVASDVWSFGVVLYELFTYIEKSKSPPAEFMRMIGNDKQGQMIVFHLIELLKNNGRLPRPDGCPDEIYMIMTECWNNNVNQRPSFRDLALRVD
T2 sequence (P52333 822-1111 limits assumed): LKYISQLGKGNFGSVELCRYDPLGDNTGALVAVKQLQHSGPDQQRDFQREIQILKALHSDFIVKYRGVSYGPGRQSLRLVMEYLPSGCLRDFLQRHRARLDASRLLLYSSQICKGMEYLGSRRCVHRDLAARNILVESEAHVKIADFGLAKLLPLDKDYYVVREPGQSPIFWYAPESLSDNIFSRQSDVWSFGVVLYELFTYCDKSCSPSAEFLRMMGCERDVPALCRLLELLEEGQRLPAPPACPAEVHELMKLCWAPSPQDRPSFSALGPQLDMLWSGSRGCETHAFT
kdr, sequence (P35968 834-1162 limits assumed, species assumed): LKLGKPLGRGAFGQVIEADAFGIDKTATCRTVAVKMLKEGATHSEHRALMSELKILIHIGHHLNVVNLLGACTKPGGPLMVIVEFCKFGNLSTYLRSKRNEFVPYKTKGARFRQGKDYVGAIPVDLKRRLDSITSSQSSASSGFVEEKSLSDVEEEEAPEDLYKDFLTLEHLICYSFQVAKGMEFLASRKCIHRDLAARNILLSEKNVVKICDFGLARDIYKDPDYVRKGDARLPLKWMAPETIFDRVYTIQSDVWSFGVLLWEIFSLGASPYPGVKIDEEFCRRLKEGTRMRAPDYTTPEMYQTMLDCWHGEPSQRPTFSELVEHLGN

On to `C[C@H](Nc1cncc(-n2cnc3ccc(NC(=O)c4cccnc4)cc32)n1)c1ccccc1`, for which the inhibition at 50 µM on Jak2 is more than 50%; on Jak3, less than 50%; at abl, more than 50%; on hck, more than 50%; at kdr, more than 50%.

Regarding `C[C@H](Nc1cncc(-n2cnc3cc(C(=O)Nc4ccccc4)ccc32)n1)c1ccccc1`, the inhibition at 50 µM at Jak2 is less than 50%; at Jak3, less than 50%; on abl it was more than 50%; at hck it was more than 50%; at kdr, less than 50%.

As for `C[C@H](Nc1cncc(-n2cnc3cc(NS(=O)(=O)c4ccccc4)ccc32)n1)c1ccccc1`, the inhibition at 50 µM was more than 50% at Jak2; more than 50% on Jak3; less than 50% at abl; less than 50% on hck; more than 50% at kdr.

Regarding `C[C@H](Nc1cncc(-n2cnc3cc(NC(=O)C4CC4)ccc32)n1)c1ccccc1`, the inhibition at 50 µM was less than 50% at Jak2; less than 50% on Jak3; more than 50% on abl; more than 50% at hck; more than 50% on kdr.

With `C[C@H](Nc1cncc(-n2cnc3ccc(NC(=O)c4ccncc4)cc32)n1)c1ccccc1`, the inhibition at 50 µM was more than 50% at Jak2; less than 50% on Jak3; more than 50% at abl; less than 50% on hck; more than 50% at kdr.

On to `COCC(=O)Nc1ccc2ncn(-c3cncc(N[C@@H](C)c4ccccc4)n3)c2c1`, for which the inhibition at 50 µM at Jak2 was more than 50%; on Jak3, less than 50%; on abl it was more than 50%; on hck it was more than 50%; on kdr it was more than 50%.

`Fc1ccc(CNc2cncc(-n3ccnc3)n2)cc1`: the inhibition at 50 µM was less than 50% at Jak2; more than 50% at Jak3; less than 50% at abl; more than 50% at hck; less than 50% on kdr.

As for `C[C@H](Nc1cncc(-n2cnc3ccc(C(=O)N4CCN(C)CC4)cc32)n1)c1ccccc1`, the inhibition at 50 µM on Jak2 is less than 50%; on Jak3 it was less than 50%; on abl, less than 50%; on hck it was more than 50%; on kdr, less than 50%.

For `C[C@H](Nc1cncc(-n2cnc3ccc(NC(=O)c4ccccc4)cc32)n1)c1ccccc1`, the inhibition at 50 µM on Jak2 is less than 50%; on Jak3 it was less than 50%; at abl, more than 50%; at hck it was more than 50%; at kdr, more than 50%.

Turning to `C[C@H](Nc1cncc(-n2cnc3cc(C(=O)N4CCN(C)CC4)ccc32)n1)c1ccccc1`, the inhibition at 50 µM at Jak2 is less than 50%; at Jak3, less than 50%; at abl, more than 50%; at hck, more than 50%; at kdr, more than 50%.

`Fc1ccc(CNc2cncc(-n3cnc4ccccc43)n2)cc1`: the inhibition at 50 µM at Jak2 was more than 50%; at Jak3 it was less than 50%; on abl it was more than 50%; at hck, more than 50%; at kdr, less than 50%.

Take `CC(Nc1cncc(-n2cnc3ccccc32)n1)c1cccnc1` (centres unmarked): the inhibition at 50 µM on Jak2, on Jak3, on abl, at hck and on kdr was more than 50% throughout.

Turning to `C[C@H](Nc1cncc(-n2cnc3cc(-c4ccncc4)ccc32)n1)c1ccccc1`, the inhibition at 50 µM was more than 50% on Jak2; less than 50% at Jak3; more than 50% on abl; more than 50% on hck; more than 50% at kdr.
